Activity calls are given as the source filed them. The rule behind the calls is not given here.

In one experiment the target is T1, Tyrosinase (Agaricus bisporus) (UniProt O42713).
T1 sequence (whole entry): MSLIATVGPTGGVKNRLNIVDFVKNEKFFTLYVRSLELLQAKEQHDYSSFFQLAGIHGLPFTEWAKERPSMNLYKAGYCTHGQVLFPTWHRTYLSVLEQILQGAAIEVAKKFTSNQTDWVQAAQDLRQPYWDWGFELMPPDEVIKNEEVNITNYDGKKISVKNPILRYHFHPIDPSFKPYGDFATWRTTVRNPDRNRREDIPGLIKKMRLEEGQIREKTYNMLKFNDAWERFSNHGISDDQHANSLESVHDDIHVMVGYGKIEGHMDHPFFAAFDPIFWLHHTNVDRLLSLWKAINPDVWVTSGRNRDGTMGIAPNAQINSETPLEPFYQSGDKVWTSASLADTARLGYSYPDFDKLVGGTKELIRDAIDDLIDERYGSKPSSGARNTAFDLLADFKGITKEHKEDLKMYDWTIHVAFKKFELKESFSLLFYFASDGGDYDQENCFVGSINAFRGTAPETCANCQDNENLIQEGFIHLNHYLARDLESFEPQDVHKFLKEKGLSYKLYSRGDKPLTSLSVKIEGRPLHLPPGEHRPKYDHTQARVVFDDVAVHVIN
The experiment in a line: Competitive-uncompetitive mixed-2 type inhibition of mushroom tyrosinase using L-DOPA as substrate at 1 to 2 uM by Lineweaver-Burk plot analysis.
`C/C(=N\NC(N)=S)c1cccc(NC(=O)c2ccccc2)c1`: the inhibition result was “Active”.

In a further experiment the target is T1, Tyrosinase (Agaricus bisporus). As to the kind of experiment: Activation of mushroom tyrosinase using L-DOPA as substrate at 100 umol/L preincubated for 30 mins followed by substrate addition measured for 1 min.
Regarding `CC(=O)Nc1ccc(C(C)=O)cc1`, the result was Active.

The target is the same in a further experiment. As to the kind of experiment: Reversible inhibition of mushroom tyrosinase using L-DOPA as substrate at 1 to 2 uM.
With `C/C(=N\NC(N)=S)c1cccc(NC(=O)c2ccccc2)c1`, the inhibition result is “Active”.

For a further experiment the target is unchanged. The experiment in a line: Reversible inhibition of mushroom tyrosinase using L-DOPA as substrate at 0.1 to 0.5 uM.
With `C/C(=N\NC(N)=S)c1ccc(NC(=O)c2ccccc2)cc1`, the inhibition entry is “Active”.

Another experiment concerns the target T2, Tyrosinase (Agaricus bisporus, UniProt O42713).
T2 sequence (O42713 whole entry): T1 sequence (whole entry)
Description: Inhibition of mushroom tyrosinase diphenolase activity using L-DOPA as substrate preincubated for 30 mins followed by substrate addition measured for 1 min
The term IC50 denotes the point on the concentration scale where inhibition reaches its midpoint. Read a high IC50 as weaker potency in that assay. Turning to `CCCCCCC(=O)Nc1ccc(/C(C)=N/NC(N)=S)cc1`, inhibition was half-maximal at 356 nM (IC50).

`C/C(=N\NC(N)=S)c1cccc(NC(=O)C(C)C)c1` showed an IC50 of 3620 nM.

As for `C/C(=N\NC(N)=S)c1cccc(NC(=O)c2ccccc2)c1`, the IC50 was 1530 nM.

For the molecule `CCCCCC(=O)Nc1cccc(/C(C)=N/NC(N)=S)c1`, the IC50 stood at 1690 nM.

Molecule `CC(=O)Nc1cccc(/C(C)=N/NC(N)=S)c1` came in with an IC50 of 4120 nM.

The molecule `C/C(=N\NC(N)=S)c1ccc(NC(=O)c2ccc(F)cc2)cc1` displayed an IC50 of 610 nM.

`C/C(=N\NC(N)=S)c1ccc(NC(=O)c2ccccc2)cc1`: the IC50 was found to be 291 nM.

`C/C(=N\NC(N)=S)c1ccc(NC(=O)C(F)(F)F)cc1` returned an IC50 of 1340 nM.

`CCCCC(=O)Nc1ccc(/C(C)=N/NC(N)=S)cc1` displayed an IC50 of 492 nM.

In turn, `COc1ccc(C(=O)Nc2ccc(/C(C)=N/NC(N)=S)cc2)cc1` came in with an IC50 of 1140 nM.

Consider `C/C(=N\NC(N)=S)c1cccc(NC(=O)Cc2ccccc2)c1`, for which half-maximal inhibition (IC50) was put at 1790 nM.

Turning to `C/C(=N\NC(N)=S)c1cccc(NC(=O)C(C)(C)C)c1`, inhibition was half-maximal at 4410 nM (IC50).

For `COC(=O)Nc1ccc(/C(C)=N/NC(N)=S)cc1`, the IC50 was found to be 498 nM.

In turn, `CCCCCC(=O)Nc1ccc(/C(C)=N/NC(N)=S)cc1` came in with an IC50 of 762 nM.

Turning to `C/C(=N\NC(N)=S)c1ccc(N)cc1`, the IC50 is 2620 nM.

`CCCCC(=O)Nc1cccc(/C(C)=N/NC(N)=S)c1` displayed an IC50 of 1540 nM.

Consider `CCC(=O)Nc1ccc(/C(C)=N/NC(N)=S)cc1`, for which inhibition was half-maximal at 372 nM (IC50).

On to `CCCCCCC(=O)Nc1cccc(/C(C)=N/NC(N)=S)c1`, for which the IC50 is 2200 nM.

On to `CCCC(=O)Nc1ccc(/C(C)=N/NC(N)=S)cc1`, for which the IC50 was determined as 644 nM.

`C/C(=N\NC(N)=S)c1ccc(NC(=O)C(Cl)(Cl)Cl)cc1` gave an IC50 of 406 nM.

For the molecule `CC(=O)Nc1ccc(/C(C)=N/NC(N)=S)cc1`, inhibition was half-maximal at 508 nM (IC50).

`C/C(=N\NC(N)=S)c1ccc(NC(=O)C(C)C)cc1` yielded an IC50 of 814 nM.

Molecule `C/C(=N\NC(N)=S)c1cccc(NC(=O)C(F)(F)F)c1` came in with an IC50 of 5760 nM.

In the case of `C/C(=N\NC(N)=S)c1ccc(NC(=O)Cc2ccccc2)cc1`, the IC50 amounted to 578 nM.

Take `C/C(=N\NC(N)=S)c1cccc(N)c1`: the IC50 was 6110 nM.

Another experiment concerns the target T1, Tyrosinase (Agaricus bisporus). As to the kind of experiment: Non-competitive inhibition of mushroom tyrosinase using L-DOPA as substrate at 0.1 to 0.5 uM by Lineweaver-Burk plot analysis.
For the molecule `C/C(=N\NC(N)=S)c1ccc(NC(=O)c2ccccc2)cc1`, the inhibition entry is “Active”.

The target is the same in a further experiment. As to the kind of experiment: Activation of mushroom tyrosinase at 0.12 to 75 ug/L relative to control.
`OC[C@H]1O[C@@H](Oc2c(O)cc(O)cc2/C=C/c2ccc(O)cc2)[C@H](O)[C@@H](O)[C@@H]1O` gave an Activity of 12%.

The values above are taken from ChEMBL document CHEMBL3407431, “Structure-based modification of 3-/4-aminoacetophenones giving a profound change of activity on tyrosinase: from potent activators to highly efficient inhibitors” (Eur J Med Chem, 2015).
